Reference: ChEMBL document CHEMBL1131649, “A novel series of N-(hexahydro-1,4-diazepin-6-yl) and N-(hexahydroazepin- 3-yl)benzamides with high affinity for 5-HT3 and dopamine D2 receptors” (Bioorg Med Chem Lett, 1998)
pIC50: −log10 of the molar value.

Experiments:
Type in all cases: cell membranes
D(2) dopamine receptor [1] = molecular target: T1, D(2) dopamine receptor (Rattus norvegicus, UniProt P61169); assay: Binding affinity against dopamine D2 receptor in rat brain synaptic membrane using [3H]-spiperone as radioligand
[2] = molecular target: T2, Serotonin 3 (5-HT3) receptor (Rattus norvegicus, UniProt P35563+Q9JJ16); assay: Binding affinity against 5-hydroxytryptamine 3 receptor in rat cortical membrane using [3H]GR-65630 as radioligand
T2 sequence (P35563 whole entry): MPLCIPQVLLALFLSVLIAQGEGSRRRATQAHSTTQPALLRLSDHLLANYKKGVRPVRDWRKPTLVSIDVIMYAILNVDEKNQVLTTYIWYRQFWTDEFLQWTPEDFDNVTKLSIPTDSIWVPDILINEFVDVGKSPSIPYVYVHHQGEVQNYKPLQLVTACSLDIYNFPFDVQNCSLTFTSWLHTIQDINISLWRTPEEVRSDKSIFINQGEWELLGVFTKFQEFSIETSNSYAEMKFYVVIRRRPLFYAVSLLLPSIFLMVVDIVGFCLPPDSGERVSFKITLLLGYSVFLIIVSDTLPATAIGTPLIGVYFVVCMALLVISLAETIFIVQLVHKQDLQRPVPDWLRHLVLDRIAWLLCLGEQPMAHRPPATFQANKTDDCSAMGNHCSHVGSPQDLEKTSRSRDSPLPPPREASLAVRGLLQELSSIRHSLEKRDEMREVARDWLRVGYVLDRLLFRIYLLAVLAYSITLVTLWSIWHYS
T2 sequence (Q9JJ16 whole entry): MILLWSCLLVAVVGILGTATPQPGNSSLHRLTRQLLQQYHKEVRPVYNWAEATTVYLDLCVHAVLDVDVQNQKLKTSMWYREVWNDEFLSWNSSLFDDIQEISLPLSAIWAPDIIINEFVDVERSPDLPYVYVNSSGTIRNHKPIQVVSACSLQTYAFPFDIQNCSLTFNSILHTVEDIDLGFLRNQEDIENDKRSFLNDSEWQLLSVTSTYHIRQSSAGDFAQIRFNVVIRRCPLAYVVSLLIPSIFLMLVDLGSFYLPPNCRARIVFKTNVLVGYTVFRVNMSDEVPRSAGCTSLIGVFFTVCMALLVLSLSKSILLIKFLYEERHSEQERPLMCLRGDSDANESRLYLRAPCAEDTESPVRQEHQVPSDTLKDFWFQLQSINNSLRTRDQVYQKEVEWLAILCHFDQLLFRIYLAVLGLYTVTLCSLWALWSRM

D(2) dopamine receptor [3] = molecular target: T1, D(2) dopamine receptor; assay: Compound was tested for binding affinity against Dopamine receptor D2 in rat brain synaptic membrane using [3H]-spiperone as radioligand

T1 sequence (P61169 whole entry): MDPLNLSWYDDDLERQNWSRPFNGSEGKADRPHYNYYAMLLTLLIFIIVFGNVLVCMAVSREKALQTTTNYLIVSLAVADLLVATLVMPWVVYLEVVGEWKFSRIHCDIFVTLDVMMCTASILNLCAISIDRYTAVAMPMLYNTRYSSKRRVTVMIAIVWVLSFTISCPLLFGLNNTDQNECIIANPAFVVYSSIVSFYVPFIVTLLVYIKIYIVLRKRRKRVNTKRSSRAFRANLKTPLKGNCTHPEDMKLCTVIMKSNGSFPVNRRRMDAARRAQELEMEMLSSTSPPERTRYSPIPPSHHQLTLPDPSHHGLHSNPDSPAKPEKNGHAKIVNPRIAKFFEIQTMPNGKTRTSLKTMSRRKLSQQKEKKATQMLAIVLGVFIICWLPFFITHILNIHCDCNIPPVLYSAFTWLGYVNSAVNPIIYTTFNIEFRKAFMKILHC

| pIC50 (D(2) dopamine receptor [1]) | pIC50 [2] | pIC50 (D(2) dopamine receptor [3]) | SMILES |
| --- | --- | --- | --- |
| < 6.00 | – | – | Cc1nccn1CC1CCc2c(c3ccccc3n2C)C1=O (stereo unspecified) [ONDANSETRON] |
| 7.06 | 6.19 | – | COc1cc(N)c(Cl)cc1C(=O)NC1CCCCN(C(C)C)C1 (stereo unspecified) |
| – | 8.02 | < 6.00 | COc1cc(N)c(Cl)cc1C(=O)NC1CN(C)CCN(C)C1 |
| 6.90 | 8.07 | – | CCN1CCN(C)CC(NC(=O)c2cc(Cl)c(N)cc2OC)C1 (stereo unspecified) |
| 7.72 | 6.87 | – | CCN1CCCC[C@@H](NC(=O)c2cc(Cl)c(N)cc2OC)C1 |
| 6.44 | 8.35 | – | CCN1CCCC[C@H](NC(=O)c2cc(Cl)c(NC)cc2OC)C1 |
| 6.74 | 8.72 | – | CCNc1cc(OC)c(C(=O)NC2CN(C)CCN(CC)C2)cc1Cl (stereo unspecified) |
| 8.35 | 7.01 | – | CCN1CCCC[C@@H](NC(=O)c2cc(Cl)c(NC)cc2OC)C1 |
| 7.21 | 8.32 | – | CCN1CCN(C)CC(NC(=O)c2cc(Cl)c(NC)cc2OC)C1 (stereo unspecified) |
| 6.66 | 7.62 | – | CCCN1CCN(C)CC(NC(=O)c2cc(Cl)c(N)cc2OC)C1 (stereo unspecified) |
| < 6.00 | 8.00 | – | CCN1CCCC[C@H](NC(=O)c2cc(Cl)c(N)cc2OC)C1 |
| – | 7.44 | – | COc1cc(N)c(Cl)cc1C(=O)NC1CCCCN(C)C1 (stereo unspecified) |
| 7.96 | 8.18 | – | CCN1CCCCC(NC(=O)c2cc(Cl)c(NC)cc2OC)C1 (stereo unspecified) |
| 6.29 | 8.15 | – | CCN1CCN(C)C[C@H](NC(=O)c2cc(Cl)c(N)cc2OC)C1 |
| 7.24 | 7.43 | – | CCCN1CCCCC(NC(=O)c2cc(Cl)c(N)cc2OC)C1 (stereo unspecified) |
| 7.06 | 7.92 | – | CCN1CCN(C)C[C@@H](NC(=O)c2cc(Cl)c(N)cc2OC)C1 |
| 6.49 | 8.82 | – | CCN1CCN(C)C[C@H](NC(=O)c2cc(Cl)c(NC)cc2OC)C1 |
| 7.41 | 7.48 | – | CCN1CCCCC(NC(=O)c2cc(Cl)c(N)cc2OC)C1 (stereo unspecified) |
| 7.60 | 7.30 | – | CCNc1cc(OC)c(C(=O)NC2CCCCN(CC)C2)cc1Cl (stereo unspecified) |
